Consider 6 compounds from ChEMBL document CHEMBL1158345, “Fragment and knowledge-based design of selective GSK-3beta inhibitors using virtual screening models” (Eur J Med Chem, 2009).

The target in this experiment is Glycogen synthase kinase-3 beta (Homo sapiens, UniProt P49841).
Chain of Glycogen synthase kinase-3 beta (P49841 whole entry): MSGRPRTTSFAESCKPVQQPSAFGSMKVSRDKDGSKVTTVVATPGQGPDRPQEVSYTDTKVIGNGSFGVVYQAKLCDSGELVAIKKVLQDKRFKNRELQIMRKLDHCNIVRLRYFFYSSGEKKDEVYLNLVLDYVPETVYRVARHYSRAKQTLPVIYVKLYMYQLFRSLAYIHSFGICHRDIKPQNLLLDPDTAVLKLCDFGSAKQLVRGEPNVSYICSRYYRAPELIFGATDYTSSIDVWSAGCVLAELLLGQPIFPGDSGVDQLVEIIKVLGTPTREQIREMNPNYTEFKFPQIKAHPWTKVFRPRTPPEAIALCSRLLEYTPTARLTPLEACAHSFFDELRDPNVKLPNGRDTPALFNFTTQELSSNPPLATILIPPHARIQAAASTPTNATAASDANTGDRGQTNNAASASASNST
Description: Inhibition of human GSK3-beta
Broadly, the IC50 is the concentration at which inhibition is half-maximal. Compound `Nc1nc(Nc2ccccc2)sc1C(=O)C1CC1` registered an IC50 of 2400 nM.

The compound `Cn1cc(C2=C(c3cc(Cl)ccc3Cl)C(=O)NC2=O)c2ccccc21` showed an IC50 of 7 nM.

In turn, `Cn1cc(C2=C(c3cn(CCCSC(=N)N)c4ccccc34)C(=O)NC2=O)c2ccccc21` [BISINDOLYLMALEIMIDE IX] displayed an IC50 of 2.8 nM.

For `COc1cc(C2=C(c3cn(CCN4CCN(C)CC4)c4ccccc34)C(=O)NC2=O)c2occc2c1`, the IC50 was 0.14 nM.

The term Ki denotes the equilibrium dissociation constant of an inhibitor or competing ligand from its target. Low readings indicate tighter binding, high ones weaker binding. Compound `O=[N+]([O-])c1ccc(NCCNc2ncc(-c3ncc[nH]3)c(-c3ccc(Cl)cc3Cl)n2)nc1` registered a Ki of 0.09 nM.

Regarding `Cn1cc(-c2cc(-c3nc4ccccc4[nH]3)c(=O)[nH]n2)ccc1=O`, the 50% inhibitory concentration (IC50) was 160 nM.
